This is an account of results in ChEMBL document CHEMBL5143734, “Seco-Lupane Triterpene Derivatives Induce Ferroptosis through GPX4/ACSL4 Axis and Target Cyclin D1 to Block the Cell Cycle” (J Med Chem, 2022).

For test [1], the system named is HepG2. Briefly: Antiproliferative activity against human HepG2 cells at 0.125 to 2 uM by Edu staining based fluorescence microscopy assay. It is filed as functional, cell-based. As to conditions: dose 0.125-2 µM, time 24-48 hrs, TDE = time-dependent effect.
In test [2] the test system is HepG2. The experiment in a line: Antiinvasive activity in human HepG2 cells assessed as inhibition of cell invasion measured after 24 hrs by crystal violet staining based transwell assay. It is filed as functional. As to conditions: dose 0.125-0.5 µM, DDE = dose-dependent effect.
Test [3] relates to HepG2. Briefly: Cytotoxicity against human HepG2 cells assessed as reduction in cell viability at 10 uM relative to control. It is filed as functional.
Test [4] has as its system HepG2. Briefly: Induction of ferroptosis in human HepG2 cells assessed as increase in intracellular ROS level incubated for 48 hrs by DCFH-DA staining based fluorescence microscopic analysis. It is filed as functional, cell-based. As to conditions: dose 0.25-1 µM, DDE = dose-dependent effect.
For test [5], the system named is HepG2. Briefly: Antimigratory activity against human HepG2 cells assessed as reduction in cell migration measured after 24 hrs by crystal violet staining based transwell assay. It is filed as functional. The note with it: dose 0.125-0.5 µM, DDE = dose-dependent effect.
Test [6] has as its system HepG2. The experiment in a line: Induction of cell death in human HepG2 cells measured after 48 hrs by Annexin V-FITC/PI double staining based flow cytometry analysis. The note with it: dose 0.5-2 µM, DDE = dose-dependent effect. It is filed as functional. (In general: Flow cytometry measures light scatter and fluorescence of single cells or particles in a stream.)
The test system of test [7] is HepG2. The experiment in a line: Induction of cell cycle arrest in human HepG2 cells assessed as increase in G1 phase at 0.5 to 2 uM. The note with it: dose 0.5-2 µM. It is filed as functional, cell-based.
The subject of test [8] is HepG2. Briefly: Downregulation of Cyclin B1 mRNA expression in human HepG2 cells at 0.5 to 2.0 uM by RT-qPCR analysis. As to conditions: dose 0.5-2 µM, time 6-36 hrs, TDE = time-dependent effect. It is filed as functional, cell-based. (In general: Real-time PCR tracks product formation cycle by cycle.)
The subject of test [9] is HepG2. The experiment in a line: Induction of ferroptosis in human HepG2 cells assessed as downregulation of GPX4 mRNA expression by measuring fragments per kilo base of exon per million mapped fragments by qRT-PCR analysis (reference value: 298.18 to 302.30). It is filed as functional.
Test [10] relates to HepG2. Briefly: Downregulation of Cyclin D1 mRNA expression in human HepG2 cells assessed as fragments per kilo base of exon per million mapped fragments by RT-qPCR analysis (reference value: 59.65 to 61.74). It is filed as functional.

Activity calls are given as the source filed them. The rule behind the calls is not given here.

For `C=C(C)[C@@H]1CC[C@]2(C(=O)OCCCCCn3cc(CCN)c4ccccc43)CC[C@]3(C)[C@H](C[C@H]4OC(=O)C[C@@H](O)[C@]5(C)[C@@H]4[C@@]3(C)CC[C@H]5C(=C)C)[C@@H]12`, the Activity result in the test on HepG2 [1] was “Tde”; in the test with HepG2 [2], “Dde”; in the test with HepG2 [3], 20.15%; in the test with HepG2 [4] it was “Dde”; in the test with HepG2 [5], “Dde”; with HepG2 [6], “Dde”. Further, the Activity result with HepG2 [8] was “Tde”; in the test on HepG2 [9], 221.77; with HepG2 [10], 53.4. For the same molecule, in the test with HepG2 [7], the outcome was Active.
